Experimental data from patent publication US20110136666A1, “CHEMICAL COMPOUNDS” (SYNGENTA CROP PROTECTION, INC., priority 2008, published 2011).

How the values were obtained:
[1] = tested on: Echinochloa crus-galli (ECHCG); test: Post-emergence biological efficacy, glasshouse pot test; format: in vivo; conditions: 312 h, after 13 days, 100=total damage, 0=no damage, read-out: Percentage damage caused to weed species ECHCG
Summary of the method: (§1)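 Species sown in soil and grown 8 days in glasshouse (24/16 °C day/night, 14 h light, 65% humidity), then sprayed with compound in acetone/water (50:50) with 0.5% Tween 20 at 250 or 1000 g/ha. Damage scored visually after 13 days (0 = none, 100 = total).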

[2] = tested on: Amaranthus retroflexus (AMARE); test: as above; format: in vivo; conditions: 312 h, after 13 days, 100=total damage, 0=no damage, read-out: Percentage damage caused to weed species AMARE
Summary of the method: as §1

[3] = tested on: Ipomea hederaceae (IPOHE); test: as above; format: in vivo; conditions: Ipomoea hederacea, 312 h, after 13 days, 100=total damage, 0=no damage, read-out: Percentage damage caused to weed species IPONE
Summary of the method: as §1

Solanum nigrum (SOLNI) [4] = test: as above; format: in vivo; conditions: 312 h, after 13 days, 100=total damage, 0=no damage, read-out: Percentage damage caused to weed species SOLNI
Summary of the method: as §1

[5] = tested on: Alopecurus myosuroides (ALOMY); test: as above; format: in vivo; conditions: 312 h, after 13 days, 100=total damage, 0=no damage, read-out: Percentage damage caused to weed species ALOMY
Summary of the method: as §1

Setaria faberi (SETFA) [6] = test: as above; format: in vivo; conditions: 312 h, after 13 days, 100=total damage, 0=no damage, read-out: Percentage damage caused to weed species SETFA
Summary of the method: as §1

[7] = tested on: Echinochloa crus-galli (ECHCG); test: Pre-emergence biological efficacy, glasshouse pot test; format: in vivo; conditions: 312 h, after 13 days, 100=total damage, 0=no damage, read-out: Percentage damage caused to weed species ECHCG
Summary of the method: (§2)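 Pots sown with weed seeds, sprayed 1 day after sowing with test compound in acetone/water (50:50) plus 0.5% Tween 20 at 250 or 1000 g/ha. Plants grown in glasshouse at 24/16° C day/night, 14 h light, 65% humidity, watered twice daily. Damage scored visually after 13 days (0 = none, 100 = total).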

[8] = tested on: Amaranthus retroflexus (AMARE); test: as above; format: in vivo; conditions: 312 h, after 13 days, 100=total damage, 0=no damage, read-out: Percentage damage caused to weed species AMARE
Summary of the method: as §2

[9] = tested on: Ipomea hederaceae (IPOHE); test: as above; format: in vivo; conditions: Ipomoea hederacea, 312 h, after 13 days, 100=total damage, 0=no damage, read-out: Percentage damage caused to weed species IPOHE
Summary of the method: as §2

Solanum nigrum (SOLNI) [10] = test: as above; format: in vivo; conditions: 312 h, after 13 days, 100=total damage, 0=no damage, read-out: Percentage damage caused to weed species SOLNI
Summary of the method: as §2

[11] = tested on: Alopecurus myosuroides (ALOMY); test: as above; format: in vivo; conditions: 312 h, after 13 days, 100=total damage, 0=no damage, read-out: Percentage damage caused to weed species ALOMY
Summary of the method: as §2

Setaria faberi (SETFA) [12] = test: as above; format: in vivo; conditions: 312 h, after 13 days, 100=total damage, 0=no damage, read-out: Percentage damage caused to weed species SETFA
Summary of the method: as §2

melting point	SMILES	pest or weed control at 1000 g/ha [1] [%]	pest or weed control at 1000 g/ha [2] [%]	pest or weed control at 1000 g/ha [3] [%]	pest or weed control at 1000 g/ha (Solanum nigrum (SOLNI) [4]) [%]	pest or weed control at 1000 g/ha [5] [%]	pest or weed control at 1000 g/ha (Setaria faberi (SETFA) [6]) [%]	pest or weed control at 1000 g/ha [7] [%]	pest or weed control at 1000 g/ha [8] [%]	pest or weed control at 1000 g/ha [9] [%]	pest or weed control at 1000 g/ha (Solanum nigrum (SOLNI) [10]) [%]	pest or weed control at 1000 g/ha [11] [%]	pest or weed control at 1000 g/ha (Setaria faberi (SETFA) [12]) [%]	also measured
194 to 195 °C	C=Cc1c(N)nc(-c2ccc(Cl)nc2)nc1C(=O)OC [Compound 68-156, 4-amino-2-(6-chloropyridin-3-yl)-5-ethenyl-6-methoxycarbonyl-pyrimidine]	0	100	50	90	0	0	0	100	40	40	10	10	–
210 to 213 °C	COC(=O)c1nc(-c2ccc(C#N)nc2)nc(N)c1Cl [Compound 2-158, 4-amino-5-chloro-2-(2-cyanopyridin-5-yl)-6-methoxycarbonylpyrimidine]	0	0	20	20	0	0	0	0	0	0	0	0	–
176 to 180 °C (dec.)	CCOC(=O)c1nc(-c2ccccn2)nc(N)c1Cl [Compound 3-149, 4-amino-5-chloro-6-ethoxycarbonyl-2-pyridin-2-ylpyrimidine]	0	0	0	0	0	0	0	0	0	0	0	0	–
185 to 186 °C	COC(=O)c1nc(-c2cnn(C)c2)nc(N)c1Cl [Compound 2-71, 4-amino-5-chloro-6-methoxycarbonyl-2-(1-methyl-1H-pyrazol-4-yl)-pyrimidine]	0	0	30	0	0	0	0	0	0	0	0	0	–
183 °C (dec.)	Nc1nc(-c2ccccn2)nc(C(=O)O)c1Cl [Compound 1-149, 4-amino-5-chloro-2-pyridin-2-ylpyrimidine-6-carboxylic acid]	0	0	0	0	0	0	0	0	0	0	0	0	–
–	COC(=O)c1nc(-c2ccc(OC)nc2OC)nc(N)c1Cl [Compound 2-159, 4-Amino-5-chloro-2-(2,6-dimethoxypyridin-3-yl)-6-methoxycarbonyl pyrimidine]	10	100	10	50	0	30	0	0	0	0	0	0	–
–	COC(=O)c1nc(-c2ccsc2Cl)nc(N)c1Cl [Compound 2-18, 4-Amino-5-chloro-2-(2-chlorothiophen-3-yl)-6-methoxycarbonyl pyrimidine]	–	–	–	–	–	–	–	–	–	–	–	–	pest or weed control at 250 g/ha [1]: 10%; pest or weed control at 250 g/ha [2]: 20%; pest or weed control at 250 g/ha [3]: 40%; pest or weed control at 250 g/ha (Solanum nigrum (SOLNI) [4]): 0%; pest or weed control at 250 g/ha [5]: 10%; pest or weed control at 250 g/ha (Setaria faberi (SETFA) [6]): 10%; pest or weed control at 250 g/ha [7]: 0%; pest or weed control at 250 g/ha [8]: 0%; pest or weed control at 250 g/ha [9]: 0%; pest or weed control at 250 g/ha (Solanum nigrum (SOLNI) [10]): 0%; pest or weed control at 250 g/ha [11]: 0%; pest or weed control at 250 g/ha (Setaria faberi (SETFA) [12]): 0%
–	COC(=O)c1nc(-c2cccnc2OC)nc(N)c1Cl [Compound 2-154, 4-Amino-5-chloro-6-methoxycarbonyl-2-(2-methoxypyridin-3-yl)-pyrimidine]	0	70	20	30	0	0	0	0	0	20	0	0	–
–	COC(=O)c1nc(-c2ccc(F)nc2)nc(N)c1Cl [Compound 2-157, 4-Amino-5-chloro-2-(2-fluoropyridin-5-yl)-6-methoxycarbonyl pyrimidine]	0	60	70	60	30	20	0	0	0	0	0	0	–
–	COC(=O)c1nc(-c2cccs2)nc(N)c1Cl [Compound 2-1, 4-Amino-5-chloro-6-methoxycarbonyl-2-thiophen-2-ylpyrimidine]	0	0	50	0	0	0	0	0	0	0	0	0	–
–	COC(=O)c1nc(-c2ncc3ccccn23)nc(N)c1Cl [Compound 2-146, 4-Amino-5-chloro-2-(imidazo[1,5-a]pyridin-3-yl)-6-methoxycarbonyl pyrimidine]	–	–	–	–	–	–	–	–	–	–	–	–	pest or weed control at 250 g/ha [1]: 0%; pest or weed control at 250 g/ha [2]: 30%; pest or weed control at 250 g/ha [3]: 40%; pest or weed control at 250 g/ha (Solanum nigrum (SOLNI) [4]): 30%; pest or weed control at 250 g/ha [5]: 0%; pest or weed control at 250 g/ha (Setaria faberi (SETFA) [6]): 0%; pest or weed control at 250 g/ha [7]: 0%; pest or weed control at 250 g/ha [8]: 0%; pest or weed control at 250 g/ha [9]: 0%; pest or weed control at 250 g/ha (Solanum nigrum (SOLNI) [10]): 0%; pest or weed control at 250 g/ha [11]: 0%; pest or weed control at 250 g/ha (Setaria faberi (SETFA) [12]): 0%
